In patent publication US20230274811A1, “METHODS OF MAKING PROSTATE CANCER TREATMENT DECISIONS” (Progenics Pharmaceuticals, Inc., priority 2020, published 2023):

Tested on: biochemically recurrent prostate cancer
Test: CONDOR: 18F-DCFPyL PET/CT correct localization rate, detection rate and PPV vs composite standard of truth
Type: in vivo, men
Details: for PPV % (95% CI): patient level
Source text: 1. Correct Localization Rate (CLR), defined as percentage of subjects with a one-to-one correspondence between localization of at least one lesion identified on ^18F-DCFPyL PET/CT imaging and the composite truth standard, defined as either evaluable histopathology, informative correlative imaging, or PSA response after radiation therapy.
Men ≥18 years of age with a rising PSA after definitive PCa therapy and negative or equivocal imaging were enrolled. […] The primary endpoint of this study was the correct localization rate (CLR). CLR is defined as the percentage of patients with a one-to-one correspondence between localization of at least one lesion identified by ^18F-DCFPyL PET/CT and a composite standard of truth (SOT). SOT was determined by two central readers and included either histopathology or another standard imaging modality (i.e., fluciclovine-PET/CT, CT/MRI, bone scan) or alternatively, by a post-treatment PSA change for irradiated lesions.
Methods: Men ≥18 years—with rising PSA after definitive therapy and negative or equivocal standard of care imaging (e.g., CT/MRI, bone scintigraphy) were enrolled. A single 9 mCi (333 MBq)±20% dose of PyL was injected, followed by PET/CT 1-2 hours later. Primary endpoint was correct localization rate (CLR), defined as percentage of pts with a 1:1 correspondence between at least one lesion identified by PyL-PET/CT and the composite standard of truth: pathology, correlative imaging, or PSA response. […] The secondary endpoint, impact of PyL-PET/CT on clinical management of pts was based on the treating physician's documented clinical plans before and after PyL-PET/CT.
Men with a PSA ≥0.2 ng/mL after surgery or ≥2 ng/mL above the nadir after radiation therapy were eligible for enrollment. The primary endpoint was the correct localization rate (CLR) defined as positive predictive value with an additional requirement of anatomical lesion colocalization between ^18F-DCFPyL-PET/CT and a composite standard of truth (SOT). The SOT consisted of, in descending priority: 1) histopathology, 2) correlative imaging findings determined by two central readers, or 3) post-radiation PSA response. […] The impact of ^18F-DCFPyL-PET/CT as defined by change in management intent, and safety were evaluated as secondary endpoints.
Patients voided prior to imaging, and PET and non-contrast CT images were acquired from the mid-thigh through the skull vertex. All ^18F-DCFPyL-PET/CT scans were submitted to the central imaging core laboratory for assessment. Patients with positive ^18F-DCFPyL-PET/CT scans based on local interpretation were scheduled for post-^18F-DCFPyL-PET/CT follow-up to verify suspected lesion(s) based on a composite standard of truth (SOT). (FIG. 16)
Because of the expected absence of an amenable lesion for histologic verification in all patients, a composite SOT was employed based on assessment performed or initiated within 60 days following ^18F-DCFPyL-PET/CT. These reference standards were defined (in descending priority) as (1) evaluable histopathology results from prostatectomy, salvage pelvic lymph node dissection or biopsy; (2) imaging findings using ^18F-fluciclovine or ^11C-choline PET, or focused MRI or CT; or (3) if neither of the above was available or informative, confirmed PSA response up to 9 months post-radiation initiation (with no concomitant ADT) of all PET-positive foci. PSA response was defined as PSA decline by ≥50% from baseline that was confirmed on repeat measurement within 4 weeks, based on central laboratory results.
A central imaging core laboratory was employed to independently manage image handling, reader training, reader sessions and data collection. […] The readers had no access to any clinical information, including PSA values or other imaging available for a patient. […]

[1] = SOT Correlative imaging n=100, Reader 3
[2] = SOT Histopathology n=31, Reader 1
[3] = SOT Histopathology n=31, Reader 2
[4] = SOT Histopathology n=31, Reader 3
[5] = SOT PET-Fluciclovine n=71, Reader 1
[6] = SOT PET-Fluciclovine n=71, Reader 2
[7] = SOT PET-Fluciclovine n=71, Reader 3

For O=C(O)CC[C@H](NC(=O)N[C@@H](CCCCNC(=O)c1ccc([18F])nc1)C(=O)O)C(=O)O [18F-DCFPyL, 2-(3-{1-carboxy-5-[(6-[^18F]fluoro-pyridine-3-carbonyl)-amino]-pentyl}ureido)-pentanedioic acid], the “CLR (TP/TP + FP)” value [1] was “(86.1%)”, the “Negative PyL Scan” value [1] was “(23.0%)” and the “PPV (TP/TP + FP)” value [1] was “(87.0%)”. The “Positive PyL Scan” value [1] was “(77.0%)”, the “CLR (TP/TP + FP)” value [2] was “(78.6%)” and the “Negative PyL Scan” value [2] was “(6.5%)”. The “PPV (TP/TP + FP)” value [2] was “(93.1%)”, the “Positive PyL Scan” value [2] was “(93.5%)” and the “CLR (TP/TP + FP)” value [3] was “(82.8%)”. For the same compound, the “Negative PyL Scan” value [3] was “(3.2%)”, the “PPV (TP/TP + FP)” value [3] was “(93.3%)” and the “Positive PyL Scan” value [3] was “(96.8%)”. For the same compound, the “CLR (TP/TP + FP)” value [4] was “(80.8%)”, the “Negative PyL Scan” value [4] was “(9.7%)” and the “PPV (TP/TP + FP)” value [4] was “(92.9%)”. The “Positive PyL Scan” value [4] was “(90.3%)”, the “CLR (TP/TP + FP)” value (SOT MRI n=23, Reader 1) was “(80.0%)” and the “Negative PyL Scan” value (SOT MRI n=23, Reader 1) was “(30.4%)”. The “Positive PyL Scan” value (SOT MRI n=23, Reader 1) was “(69.6%)”, the “CLR (TP/TP + FP)” value (SOT MRI n=23, Reader 2) was “(86.7%)” and the “Negative PyL Scan” value (SOT MRI n=23, Reader 2) was “(30.4%)”. The “Positive PyL Scan” value (SOT MRI n=23, Reader 2) was “(69.6%)”, the “CLR (TP/TP + FP)” value (SOT MRI n=23, Reader 3) was “(86.7%)” and the “Negative PyL Scan” value (SOT MRI n=23, Reader 3) was “(30.4%)”. For the same compound, the “Positive PyL Scan” value (SOT MRI n=23, Reader 3) was “(69.6%)”, the “CLR (TP/TP + FP)” value [5] was “(90.9%)” and the “Negative PyL Scan” value [5] was “(14.1%)”. For the same compound, the “Positive PyL Scan” value [5] was “(85.9%)”, the “CLR (TP/TP + FP)” value [6] was “(90.0%)” and the “Negative PyL Scan” value [6] was “(23.9%)”. The “Positive PyL Scan” value [6] was “(76.1%)”, the “CLR (TP/TP + FP)” value [7] was “(86.8%)” and the “Negative PyL Scan” value [7] was “(19.7%)”. For the same compound, the “Positive PyL Scan” value [7] was “(80.3%)”, the “CLR (TP/TP + FP)” value (SOT PSA response n=1, Reader 1) was “(100%)” and the “Negative PyL Scan” value (SOT PSA response n=1, Reader 1) was “(0.0%)”. For the same compound, the “PPV (TP/TP + FP)” value (SOT PSA response n=1, Reader 1) was “(100%)”, the “Positive PyL Scan” value (SOT PSA response n=1, Reader 1) was “(100%)” and the “CLR (TP/TP + FP)” value (SOT PSA response n=1, Reader 2) was “(100%)”. The “Negative PyL Scan” value (SOT PSA response n=1, Reader 2) was “(0.0%)”, the “PPV (TP/TP + FP)” value (SOT PSA response n=1, Reader 2) was “(100%)” and the “Positive PyL Scan” value (SOT PSA response n=1, Reader 2) was “(100%)”. For the same compound, the “CLR (TP/TP + FP)” value (SOT PSA response n=1, Reader 3) was “(100%)”, the “Negative PyL Scan” value (SOT PSA response n=1, Reader 3) was “(0.0%)” and the “PPV (TP/TP + FP)” value (SOT PSA response n=1, Reader 3) was “(100%)”. The “Positive PyL Scan” value (SOT PSA response n=1, Reader 3) was “(100%)”, the “CLR (TP/TP + FP)” value (all patients n=208, Reader 1) was “(85.6%)” and the “Negative PyL Scan” value (all patients n=208, Reader 1) was “(34.1%)”. The “Positive PyL Scan” value (all patients n=208, Reader 1) was “(65.9%)”, the “CLR (TP/TP + FP)” value (all patients n=208, Reader 2) was “(87.0%)” and the “Negative PyL Scan” value (all patients n=208, Reader 2) was “(40.4%)”. The “Positive PyL Scan” value (all patients n=208, Reader 2) was “(59.6%)”, the “CLR (TP/TP + FP)” value (all patients n=208, Reader 3) was “(84.8%)” and the “Negative PyL Scan” value (all patients n=208, Reader 3) was “(40.9%)”. The “Positive PyL Scan” value (all patients n=208, Reader 3) was “(59.1%)”, the lesion detection rate (baseline PSA <0.5 ng/mL) was 36.2% and the “median CLR” value (baseline PSA <0.5 ng/mL) was 73.3%. For the same compound, the lesion detection rate (baseline PSA ≥5 ng/mL) was 96.7%, the “median CLR” value (baseline PSA ≥5 ng/mL) was 96.4% and the “PPV % (95% CI)” value (CONDOR Reader 4) was 90%. For the same compound, the “PPV % (95% CI)” value (CONDOR Reader 5) was 91%, the “PPV % (95% CI)” value (CONDOR Reader 6) was 89% and the CLR (patients with PSA 0.2 to <2.0 ng/mL) was > 73%. For the same compound, the “PET/CT finding, case study 2” value (person, PSA 1.27 ng/mL, confirmed by contrast-MRI) was “lumbar spine metastasis”, the “PET/CT finding, case study 1” value (person, PSA 1.92 ng/mL, confirmed by pathology) was “L common iliac and multiple retroperitoneal lymph node lesions” and the “PET/CT finding, case study 3” value (person, PSA 1.78, confirmed by biopsy) was “a thoracic spine lesion”.
